Experimental data as given in patent US20200305471A1, “METHODS AND COMPOSITIONS FOR IMPROVING THE TASTE OF DIET COLA SODAS AND OTHER BEVERAGES” (priority 2017, published 2020).

Assays:
[1] = chemicals of externally-applied lavender or tea tree oils; NIH 2018; cited from earlier work
[2] = Taste and/or aroma of Diet Coke after adding the substance (opinions of a few people); settings: for taste and/or aroma of Diet Coke after adding the substance: substance alone added to about 220 ml (7.5 ounces) Diet Coke, room temperature
Text: For the embodiments disclosed herein, the signifier “aroma” is used in preference to its synonyms: smell and odor (which have negative connotations), and scent (which has perfume connotations). The signifier “taste” is mostly used herein, and to a lesser extent, “flavor”, which often signifies a specific “taste”.
Taste and aroma are not separate sensory experiences. […] This is attributed to the odor sensors in the nose being blocked. […] Thus, in many of the embodiments disclosed herein, the term “taste and/or aroma” is used.
For the exemplary embodiments that follow, the examples are performed with all liquids at room temperature. Sodas typically taste more flavorful at lower temperatures (sodas retain carbonation better at lower temperatures, which creates a better taste for many people). […] Tastes and/or aromas can also vary due to the use of soda container: glass, plastic or metal. There are many who think that cola sodas taste best when consumed from glass bottles. For many of the exemplary embodiments disclosed herein, Bodum Pavina Coffee Mugs, double-wall insulated glass mugs, 8 ounce size, are used.
One embodiment of an improved diet cola beverage product is understood with the following exemplary method and resulting exemplary article of manufacture. […] Any coca leaf extract with similar chemical components to ERC-A20 can be used—coca leaf extracts discussed below.

[3] = cited from earlier work
[4] = as sweet as sucrose; cited from earlier work

**Q.** With CC1=CCC(O)(C(C)C)CC1 (centres unmarked) [4-terpineol] as the compound, how does the “contribution to abnormal breast growth (potential hormone disruptor)” value (“contribution to abnormal breast growth” below) [1] read?
**A.** The value was “probably contributed to the abnormal breast growth”.

**Q.** For O=C([O-])c1ccccc1.[Na+] [sodium benzoate, reference compound], which “taste and/or aroma of Diet Coke after adding the substance” value (“taste and/or aroma of Diet Coke” for short) [2] is on record?
**A.** Its value is “No improvement”.

**Q.** With CCOC(=O)c1ccccc1 [ethyl benzoate] as the compound, how does the “taste and/or aroma of Diet Coke” value [2] read?
**A.** Its value is “more pleasant than that of untreated Diet Coke”.

**Q.** What about the solubility in water [3] of the same compound?
**A.** Its solubility in water is 500 micrograms/milliliter.

**Q.** Which “contribution to abnormal breast growth” value [1] does the source give for C=C(C)[C@H]1CC=C(C)CC1 [limonene] here?
**A.** The value was “probably contributed to the abnormal breast growth”.

**Q.** Which “contribution to abnormal breast growth” value [1] does the source give for C=CC(C)(CCC=C(C)C)OC(C)=O (centres unmarked) [linalyl acetate] here?
**A.** Its value is “probably contributed to the abnormal breast growth”.

**Q.** With CC1=CC=C(C(C)C)CC1 [alpha-terpinene] as the compound, how does the “contribution to abnormal breast growth” value [1] read?
**A.** Its value is “probably contributed to the abnormal breast growth”.

**Q.** Which “taste and/or aroma of Diet Coke” value [2] does the source give for CC1=CCC(C(C)(C)O)CC1 (stereo not drawn) [alpha-terpineol] here?
**A.** Its value is “more pleasant”.

**Q.** And the “contribution to abnormal breast growth” value [1]?
**A.** The value was “probably contributed to the abnormal breast growth”.

**Q.** For CC1=CCC(C(C)C)=CC1 [gamma-terpinene], which “taste and/or aroma of Diet Coke” value [2] is on record?
**A.** The value was “while more pleasant as seen with adding alpha-terpineol, also has less of a “coca cola” taste”.

**Q.** Which “taste and/or aroma of Diet Coke” value [2] does the source give for COC(=O)c1ccccc1 [methyl benzoate] here?
**A.** The value was “improvement in Diet Coke taste similar to that of ethyl benzoate”.

**Q.** With CC12CCC(CC1)C(C)(C)O2 [eucalyptol] as the compound, how does the “contribution to abnormal breast growth” value [1] read?
**A.** Its value is “probably contributed to the abnormal breast growth”.

**Q.** Which “taste test preference, added to Diet Coke versus added to Coca-Cola Zero” value ([2]; some taste tests, Diet Coke (total 2 artificial sweeteners) vs Coca-Cola Zero (3 artificial sweeteners)) does the source give for O=S(=O)([O-])NC1CCCCC1.[Na+] [sodium cyclamate] here?
**A.** Its value is “more preferred”.

**Q.** With OC[C@@H](O)[C@@H](O)[C@H](O)[C@@H](O)CO [sorbitol] as the compound, how does the “sweetness relative to sucrose” value [4] read?
**A.** Its value is “about 60%”.

**Q.** Which results are given for C=CC(C)(O)CCC=C(C)C (centres unmarked) [linalool]?
**A.** taste and/or aroma of Diet Coke after adding the substance [2]: little-to-no change in the unpleasant; contribution to abnormal breast growth (potential hormone disruptor) [1]: probably contributed to the abnormal breast growth

**Q.** With OC[C@H]1O[C@@](CO)(O[C@H]2O[C@H](CO)[C@@H](O)[C@H](O)[C@H]2O)[C@@H](O)[C@@H]1O [sugar] as the compound, how does the “taste of resulting beverage, sweetener added together with coca leaf extract” value ([2]; 220 ml Diet Coke + one teaspoon coca leaf extract + sweetener (about one bag Sugar Twin; one to two bags sugar)) read?
**A.** The value was “more pleasant tasting Diet Coke soda”.
